According to patent publication US8449898B2 (priority 2007, dated 2013):
Read-outs that look alike come from different tables or passages of the source.

Legend:
[1] = system: Phytophthora infestans (the causal agent of tomato late blight); assay: whole plant or invertebrate; assay type: in vivo; details: for TLB Obsd (observed effect, tomato late blight): component (b) alone; for TLB Obsd (disease control rating): Table B
[2] = system: Pseudoperonospora cubensis (the causal agent of cucumber downy mildew); assay: Test B: cucumber downy mildew, preventive spray on cucumber seedlings; assay type: in vivo; details: for CDM Obsd (disease control rating): Table B
[3] = Phytophthora infestans, read-out: TLB Obsd, component (b) alone, 2 ppm
[4] = Phytophthora infestans, read-out: TLB Obsd, component (b) alone, 10 ppm
[5] = Phytophthora infestans, read-out: TLB Obsd, component (b) alone, 40 ppm
[6] = Pseudoperonospora cubensis, component (b) alone 0.4 ppm (Compound 1 0 ppm), read-out: CDM Obsd
[7] = Pseudoperonospora cubensis, component (b) alone 2 ppm (Compound 1 0 ppm), read-out: CDM Obsd
[8] = Pseudoperonospora cubensis, component (b) alone 10 ppm (Compound 1 0 ppm), read-out: CDM Obsd
[9] = Pseudoperonospora cubensis, component (b) alone 40 ppm (Compound 1 0 ppm), read-out: CDM Obsd
[10] = Pseudoperonospora cubensis, component (b) alone, 2 ppm, read-out: CDM Obsd
[11] = Pseudoperonospora cubensis, component (b) alone, 10 ppm, read-out: CDM Obsd
[12] = Pseudoperonospora cubensis, component (b) alone, 40 ppm, read-out: CDM Obsd

Row | Compound | pest or weed control at 2 ppm [1, 3] [%] | pest or weed control at 10 ppm [1, 4] [%] | pest or weed control at 40 ppm [1, 5] [%] | pest or weed control at 0.4 µg/mL [2, 6] [%] | pest or weed control at 2 µg/mL [2, 7] [%] | pest or weed control at 10 µg/mL [2, 8] [%] | pest or weed control at 40 µg/mL [2, 9] [%] | pest or weed control at 2 ppm [2, 10] [%] | pest or weed control at 10 ppm [2, 11] [%] | pest or weed control at 40 ppm [2, 12] [%] | TLB Obsd (observed effect, tomato late blight) ([1]; 0.08 ppm) | TLB Obsd (observed effect, tomato late blight) ([1]; 0.4 ppm) | TLB Obsd (observed effect, tomato late blight) ([1]; 2 ppm) | TLB Obsd (observed effect, tomato late blight) ([1]; 10 ppm) | TLB Obsd (observed effect, tomato late blight) ([1]; 40 ppm) | CDM Obsd (observed effect, cucumber downy mildew) ([2]; component (b) alone, 0.08 ppm) | CDM Obsd (observed effect, cucumber downy mildew) ([2]; component (b) alone, 0.4 ppm) | CDM Obsd (observed effect, cucumber downy mildew) ([2]; component (b) alone, 2 ppm) | CDM Obsd (observed effect, cucumber downy mildew) ([2]; component (b) alone, 10 ppm) | CDM Obsd (observed effect, cucumber downy mildew) ([2]; component (b) alone, 40 ppm) | further results
1 | CO/N=C(/C(=O)OC)c1ccccc1COc1ccccc1C [kresoxim-methyl] | 32 | 86 | 96 | 47 | 47 | 47 | 99 | 9 | 30 | 37 |  |  |  |  |  |  |  |  |  |  | pest or weed control at 0.4 ppm ([1]; Phytophthora infestans, read-out: TLB Obsd (disease control rating), Table C, component (b) alone 0.4 ppm): 9%; pest or weed control at 2 ppm ([1]; Phytophthora infestans, read-out: TLB Obsd (disease control rating), Table C, component (b) alone 2 ppm): 33%; pest or weed control at 10 ppm ([1]; Phytophthora infestans, read-out: TLB Obsd (disease control rating), Table C, component (b) alone 10 ppm): 80%; pest or weed control at 40 ppm ([1]; Phytophthora infestans, read-out: TLB Obsd (disease control rating), Table C, component (b) alone 40 ppm): 99%; pest or weed control at 200 ppm ([1]; Phytophthora infestans, read-out: TLB Obsd (disease control rating), Table C, component (b) alone 200 ppm): 99%; pest or weed control at 0.04 ppm ([1]; Phytophthora infestans, read-out: TLB Obsd, component (b) alone, 0.04 ppm): 8%; pest or weed control at 200 ppm ([1]; Phytophthora infestans, read-out: TLB Obsd, component (b) alone, 200 ppm): 100%; pest or weed control at 0.4 ppm ([2]; Pseudoperonospora cubensis, Table C, component (b) alone 0.4 ppm, read-out: CDM Obsd (disease control rating)): 47%; pest or weed control at 2 ppm ([2]; Pseudoperonospora cubensis, Table C, component (b) alone 2 ppm, read-out: CDM Obsd (disease control rating)): 47%; pest or weed control at 10 ppm ([2]; Pseudoperonospora cubensis, Table C, component (b) alone 10 ppm, read-out: CDM Obsd (disease control rating)): 53%; pest or weed control at 40 ppm ([2]; Pseudoperonospora cubensis, Table C, component (b) alone 40 ppm, read-out: CDM Obsd (disease control rating)): 57%; pest or weed control at 200 ppm ([2]; Pseudoperonospora cubensis, Table C, component (b) alone 200 ppm, read-out: CDM Obsd (disease control rating)): 100%; pest or weed control at 200 µg/mL ([2]; Pseudoperonospora cubensis, component (b) alone 200 ppm (Compound 1 0 ppm), read-out: CDM Obsd): 100%; pest or weed control at 0.04 ppm ([2]; Pseudoperonospora cubensis, component (b) alone, 0.04 ppm, read-out: CDM Obsd): 9%; pest or weed control at 200 ppm ([2]; Pseudoperonospora cubensis, component (b) alone, 200 ppm, read-out: CDM Obsd): 100%
2 | CC(C)[C@H](NC(=O)O)C(=O)N[C@H](C)c1nc2ccc(F)cc2s1 [benthiavalicarb] |  |  |  |  |  |  |  |  |  |  | 21 | 82 | 100 | 100 | 100 | 0 | 75 | 100 | 100 | 100 | 
3 | Cc1ccc(C(C)NC(=O)[C@@H](NC(=O)OC(C)C)C(C)C)cc1 (stereo partly drawn) [iprovalicarb] |  |  |  |  |  |  |  |  |  |  | 0 | 21 | 74 | 98 | 100 | 0 | 0 | 0 | 99 | 100 | TLB Obsd (disease control rating) ([1]; component (b) alone 0.08 ppm): 0%; TLB Obsd (disease control rating) ([1]; component (b) alone 0.4 ppm): 9%; TLB Obsd (disease control rating) ([1]; component (b) alone 2 ppm): 39%; TLB Obsd (disease control rating) ([1]; component (b) alone 10 ppm): 99%; TLB Obsd (disease control rating) ([1]; component (b) alone 40 ppm): 100%; CDM Obsd (disease control rating) ([2]; component (b) alone 0.08 ppm): 47%; CDM Obsd (disease control rating) ([2]; component (b) alone 0.4 ppm): 57%; CDM Obsd (disease control rating) ([2]; component (b) alone 2 ppm): 77%; CDM Obsd (disease control rating) ([2]; component (b) alone 10 ppm): 100%; CDM Obsd (disease control rating) ([2]; component (b) alone 40 ppm): 100%; CDM Obsd ([2]; component (b) alone 0.08 ppm (Compound 1 0 ppm)): 26%; CDM Obsd ([2]; component (b) alone 0.4 ppm (Compound 1 0 ppm)): 26%; CDM Obsd ([2]; component (b) alone 2 ppm (Compound 1 0 ppm)): 26%; CDM Obsd ([2]; component (b) alone 10 ppm (Compound 1 0 ppm)): 88%; CDM Obsd ([2]; component (b) alone 40 ppm (Compound 1 0 ppm)): 100%
4 | CSC1=N[C@@](C)(c2ccccc2)C(=O)N1Nc1ccccc1 [fenamidone] | 99 | 100 | 100 | 47 | 82 | 100 | 100 | 85 | 100 | 100 |  |  |  |  |  |  |  |  |  |  | pest or weed control at 0.08 ppm ([1]; Phytophthora infestans, read-out: TLB Obsd, component (b) alone, 0.08 ppm): 22%; pest or weed control at 0.4 ppm ([1]; Phytophthora infestans, read-out: TLB Obsd, component (b) alone, 0.4 ppm): 30%; pest or weed control at 0.08 µg/mL ([2]; Pseudoperonospora cubensis, component (b) alone 0.08 ppm (Compound 1 0 ppm), read-out: CDM Obsd): 65%; pest or weed control at 0.08 ppm ([2]; Pseudoperonospora cubensis, component (b) alone, 0.08 ppm, read-out: CDM Obsd): 0%; pest or weed control at 0.4 ppm ([2]; Pseudoperonospora cubensis, component (b) alone, 0.4 ppm, read-out: CDM Obsd): 0%
